Source: patent publication US20080070986A1, “ALKYLETHER CITRATES FOR SELECTIVELY CLEANING THE SKIN” (priority 2006, published 2008)

What was measured:
Experiment in all cases: Minimum inhibiting concentration (MIC), dilution series to DIN 58940 and DIN 58944
Format in all cases: cell-based
Malassezia furfur = system: Malassezia furfur; parameters: unit not given here; details: test solution 10% active substance
Method: (§1) The scale of an antimicrobial effect of surfactants can be established in a biological test system in which the minimum inhibiting concentration (MIC) is comparatively determined under laboratory conditions. In a dilution series of the test substance, the MIC is just that concentration at which no further growth is possible. The milder a surfactant, the higher the MIC value. The minimum inhibiting concentration of various surfactants was determined for three microorganisms occurring on the skin (Table 1). The surfactants are referred to by their names under the INCI nomenclature. [table] [table]

[1] = system: Staphylococcus epidermidis; parameters: Minimum inhibiting concentration: unit not given here; details: for Minimum inhibiting concentration: test solution 10% active substance
Method: as §1

Propionibacterium acnes = system: Propionibacterium acnes; parameters: Minimum inhibiting concentration: unit not given here; details: for Minimum inhibiting concentration: test solution 10% active substance
Method: as §1

[2] = in words, versus the other surfactants of Table 1

Substance	Minimum inhibiting concentration (Malassezia furfur; pH 6.5, single surfactants)	Minimum inhibiting concentration ([1]; pH 6.5, single surfactants)	Minimum inhibiting concentration (Propionibacterium acnes; pH 6.5, single surfactants)	Minimum inhibiting concentration (Malassezia furfur; surfactant combinations)	Inhibition compared with the other surfactants [1, 2]	Minimum inhibiting concentration ([1]; surfactant combinations)	Inhibition compared with the other surfactants (Propionibacterium acnes; [2])	Minimum inhibiting concentration (Propionibacterium acnes; surfactant combinations)
Cocamidopropyl betaine	>0.5	0.1	0.05					
Lauryl Glucoside	>0.5	0.5	0.05					
Laureth-7 Citrate	>0.5	>0.5	>0.5	≧1	only inhibited at considerably higher concentrations	≧1	only inhibited at considerably higher concentrations	≧1
Sodium Laureth Sulfate	>0.5	0.5	0.05	≧1		0.5		0.05
